One block for each molecule: values may come before it.
Key:
human neutrophil MPO = target: T1, human neutrophil MPO (Homo sapiens, UniProt P05164); assay: MPO-mediated polymerization of DOTA(Gd) substrates: T1/T2 relaxivity change; type: biochemical; conditions: for relaxivity ratio: ˜2000 U of MPO activity
T1 construct: purchased BioDesign Inc
Protocol: (§1) Reactions with HRP and MPO were carried out at room temperature in the presence of 0.5-1 mM substrate dissolved in 0.5 ml PBS containing H2O2 (2 mM). Reaction was initiated by adding an aliquot containing the enzyme (either HRP or MPO) and vortexing. After at least a 30 min incubation period T1 was measured using inversion-recovery pulse sequence Bruker Minispec (Buker Analytics, North Bellirica Mass.) at 0.47 T (20 MHz). Size-exclusion HPLC of reaction products was performed on TSK G3000SWXL macroporous column (Supelco) eluted with 0.1 M triethylammonium acetate, pH 7.0 at 1 ml/min.
(§2) Standard 96-well plates were prepared and imaged on a 1.5 T whole body clinical General Electric Signa MRI scanner utilizing a standard 3 inch surface coil. Inversion recovery sequences were used to measure T1 relaxation and spin echo sequences were utilized to measure T2 relaxation. T2 weighted images were obtained with TR=5000 ms and TE=100 ms with a fast spin echo sequence. T1 weighted images were obtained with spin echo sequences with the following parameters: TR=100, 200, 350, or 500, TE=11. For the Matrigel™ experiments, a relatively T2 weighted image was obtained at TR=300 ms and TE=200 ms. Single-exponential models were used to obtain T1 and T2. The relaxivities were computed by normalizing relaxation rates to the concentration of gadolinium in each sample, obtained by inductive coupled plasma (ICP) analysis performed by Galbraith Laboratories.
To determine the effect of myeloperoxidase on the substrates, we performed T1 and T2 relaxivity measurements in aqueous solutions, with and without MPO and hydrogen peroxide, at 0.47 T and 1.5 T (the results are summarized in FIGS. 3A and 3B for tyramide-DOTA(Gd) and FIGS. 4A and 4B for 5-HT-DOTA(Gd)). For reference, the two substrates were also reacted with HRP (solid symbols in FIGS. 3A and 3B and FIGS. 4A and 4B).

[1] = target: T2, horseradish peroxidase (HRP) (Armoracia rusticana, UniProt P00433); assay: HRP-mediated polymerization of DOTA(Gd) substrates: relaxivity change; type: biochemical; design: purchased Sigma
T2 sequence (P00433 31-338): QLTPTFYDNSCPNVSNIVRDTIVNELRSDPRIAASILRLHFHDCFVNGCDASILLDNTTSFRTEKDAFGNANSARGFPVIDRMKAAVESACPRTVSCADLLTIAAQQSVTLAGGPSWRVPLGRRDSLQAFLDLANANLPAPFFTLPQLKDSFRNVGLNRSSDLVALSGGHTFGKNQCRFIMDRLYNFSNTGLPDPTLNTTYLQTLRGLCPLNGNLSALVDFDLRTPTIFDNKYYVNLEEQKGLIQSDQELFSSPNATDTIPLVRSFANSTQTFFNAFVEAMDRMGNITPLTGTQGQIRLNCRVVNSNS
Protocol: as §1
as §2, with “The relaxivities were computed by normalizing relaxation rates to the concentration of gadolinium in each sample, obtained by inductive coupled plasma (ICP) analysis performed by Galbraith Laboratories.” left out

[2] = target: T2, horseradish peroxidase (HRP); assay: Pseudo-first-order rate constants of HRP-mediated conversion (relaxation times over time, 0.47 T); type: biochemical, horseradish; design: purchased Sigma-Aldrich type XII (catalogue number not given); conditions: from T1 measurements, mean±SD
Protocol: Kinetics of the samples were observed by measuring T1 and T2 at 0.47 T and 40° C. of the samples over at least a 24 hour period. At different time points, 1 M of sodium azide (final concentration=0.17 M) was added to stop the enzyme mediated reaction. The resultant progress curve was fitted with an empirical mathematical model and analyzed according to the Guggenheim method to obtain the pseudo-first-order rate constants (Guggenheim E A. Philos. Mag. 1926; 2:538).
An important property of a suitable substrate for an enzyme is the kinetics of enzymatic reaction. To determine the utility of the paramagnetic complexes as suitable substrates for human myeloperoxidase (MPO), we measured the pseudo-first-order rate constant of these substrates in MPO, and compared to the same substrates' reactions in Horse Radish Peroxidase (HRP) by monitoring the changes in relaxation time over time. […] The results shown were obtained using T1 measurements. T2 measurements yielded nearly identical results. The results are presented as mean±SD. N/A=not applicable.

[3] = target: T3, human MPO embedded in Matrigel (Homo sapiens, UniProt P05164); assay: MPO/Matrigel implant mouse model, T1-weighted MR imaging; type: in vivo; conditions: mice; right MPO/Matrigel vs left control; 1.5 T
T3 construct: purchased BioDesign, Inc
T3 sequence (P05164 49-745): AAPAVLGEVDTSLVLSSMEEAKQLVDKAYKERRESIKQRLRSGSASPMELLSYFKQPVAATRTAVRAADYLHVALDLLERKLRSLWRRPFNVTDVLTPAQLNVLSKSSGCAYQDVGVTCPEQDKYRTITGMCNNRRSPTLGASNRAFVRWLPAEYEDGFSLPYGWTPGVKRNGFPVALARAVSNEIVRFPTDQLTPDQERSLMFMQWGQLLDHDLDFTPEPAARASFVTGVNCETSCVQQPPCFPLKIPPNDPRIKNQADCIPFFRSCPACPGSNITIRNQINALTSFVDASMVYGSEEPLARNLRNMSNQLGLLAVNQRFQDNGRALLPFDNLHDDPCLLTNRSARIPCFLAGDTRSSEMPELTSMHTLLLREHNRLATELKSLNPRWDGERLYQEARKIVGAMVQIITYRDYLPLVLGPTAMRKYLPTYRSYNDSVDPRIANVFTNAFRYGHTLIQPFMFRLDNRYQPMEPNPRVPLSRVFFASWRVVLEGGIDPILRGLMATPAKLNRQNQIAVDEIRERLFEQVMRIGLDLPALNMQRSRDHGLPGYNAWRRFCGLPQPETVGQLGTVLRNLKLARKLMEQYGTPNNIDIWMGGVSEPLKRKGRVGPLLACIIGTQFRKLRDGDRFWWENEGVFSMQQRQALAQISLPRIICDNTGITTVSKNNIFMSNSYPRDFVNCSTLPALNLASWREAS
Protocol: To evaluate the monomeric substrates in vivo, we devised a mouse model that harbored 400 μL of Matrigel basement membrane matrix gel mixed 1:1 by volume with a solution containing 15 U of human MPO and glucose oxidase (as a source of hydrogen peroxide) that was injected into the right flank of the mouse. The left flank was injected with the enzyme-free Matrigel mixture. We subsequently performed T1-weighted MR imaging after the intravenous injection of Gd-DTPA-diSer substrate at the dose of […].
The MR imaging experiments were performed on a 1.5 T GE Excite scanner and a 4.7 T Bruker Pharmascan scanner. For all MR imaging experiments, precontrast T2-(TR=2000, TE=100, ETL=8, NEX=4, fast spin echo sequence) and T1-weighted images (TR=500, TE=11, NEX=4, spin echo sequence) with fat saturation were initially performed to locate the gels or area of inflammation. The substrates (0.3 mmol/kg) were subsequently injected via the tail vein of the mouse. The mouse was immediately imaged after the injection of the contrast agent using multiple T1-weighted sequences with fat saturation for at least 3 hours.
(§3) Ten-week old C57BL6 male mice were obtained from Jackson Laboratories. A total of 22 mice were used for the study. • 1. MPO/Matrigel imaging experiments: Matrigel™ (Beckton-Dickinson), a […] basement membrane matrix gel was used to immobilize human MPO and glucose oxidase (to supply H2O2 required for detecting MPO oxidative activity, Calbiochem). This was chosen to reflect deposits of human MPO in inflamed tissue in a mouse model. 400 μL of a mixture of Matrigel™ and MEM (Cambrex) was injected slowly into the thighs of each mouse one hour prior to imaging. The right thigh mixture also contained 15 U of MPO and 4 U of glucose oxidase (Calbiochem), while the left thigh mixture contained no enzyme and thus serves as an internal control. A total of 15 mice were used (3 mice each for 5-HT-DOTA(Gd), bis-5-HT-DTPA(Gd), bis-5-HT-DTPA-^111In, bis-tyramide-DTPA(Gd), and DTPA(Gd)). • 2. LPS/Matrigel experiments (n=3): This model was developed to induce endogeneous mouse MPO secretion and activation. 200 μL total volume Matrigel containing 10% heparin was injected slowly into the thighs of the mice 4 days prior to imaging. The right-sided mixture also contained E. coli lipopolysaccharide (LPS) at 10 μg/mL. One mouse was sacrificed for immunohistochemistry. • 3. Myositis experiments (n=4): LPS at 100 μg/mL in PBS was injected into each mouse intramuscularly in the right flank to produce myositis. The mice are imaged 24 hours after injection.
For normalized signal intensity measured on T1-weighted images, mean±standard deviation (SD) values were calculated in regions of interest (ROI). Contrast-to-noise (CNR) ratios were computed for each ROI according to the formula

[4] = Biodistribution of 111In tracer; type: in vivo, mouse; conditions: mice, 6 h post injection
Protocol: (§4) 80-100 μCi of ^111In-bis-5-HT-DTPA in 200 μL of saline was injected intravenously into three mice prepared in the same manner as in the MPO/Matrigel MR imaging experiments. The animals were imaged 3 hours after injection on a high resolution X-SPECT/CT system (Gamma Medica). Six hours after injection, the animals were sacrificed and biodistribution was determined in major organs. The % dose accumulated per gram of major organs was determined by using the 1480 Wizard gamma counter (Perkin-Elmer).

MPO = target: T4, MPO (Homo sapiens, UniProt P05164); assay: SPECT-CT imaging of MPO/Matrigel implants with 111In tracer; type: in vivo, mouse; design: purchased BioDesign, Inc
T4 sequence (P05164 49-745): T3 sequence (P05164 49-745)
Protocol: as §3, §4

MPO-I = target: T5, MPO-I (Homo sapiens, UniProt P05164); conditions: cited from earlier work
T5 sequence (P05164 49-745): T3 sequence (P05164 49-745)

relaxivity ratio (human neutrophil MPO; 0.47 T): 1.7 times
relaxivity ratio (human neutrophil MPO; 1.5 T): 1.4 times
T1 shortening relative to the HRP result (human neutrophil MPO; 2000 U MPO): 70-75%
MPO needed to reach >90% of the T1 shortening seen with HRP (human neutrophil MPO; assuming a linear response to the amount of MPO): > 3000 U
increase in relaxivity of polymer product (human neutrophil MPO; equivalent amount of MPO, clinical imaging strength): 1.4 times
relaxivity ratio ([1]; 0.47 T): about 2.3 times
relaxivity ratio ([1]; 1.5 T): about 2.1 times
Pseudo first-order rate constant [2]: 0.0095 s⁻¹
Compound: CC(C(=O)NCC(=O)NCCc1ccc(O)cc1)N1CCN(CC(=O)[O-])CCN(CC(=O)[O-])CCN(CC(=O)[O-])CC1.[Gd+3] (stereo not shown) [tyramide-DOTA(Gd), Glycylmethyl DOTA(Gd) Tyramide]

Compound: O=C(O)CN(CCN(CC(=O)O)CC(=O)NCCc1c[nH]c2ccc(O)cc12)CCN(CC(=O)O)CC(=O)NCCc1c[nH]c2ccc(O)cc12 [Compound 2]
enhancement of MPO implant compared with control implant [3]: significantly increased enhancement

Compound: O=C([O-])CN(CCN(CC(=O)[O-])CC(=O)NCCc1c[nH]c2ccc(O)cc12)CCN(CC(=O)[O-])CC(=O)NCCc1c[nH]c2ccc(O)cc12.[111In+3] [^111In-bis-5-HT-DTPA]
injected dose excreted [4]: 90%
organs holding most of the remaining dose [4]: spleen, bowel, kidney, and liver
organs holding most of the remaining dose ([4]; listed as 111In-chelated monomeric substrate): spleen, kidneys, bowel, and liver
increase in the radioactivity of the right leg (with MPO) vs. the left leg (without MPO) (MPO; mice n=3, SPECT-CT 3 hours after injection): 2.3±0.3 fold
increase in count in the dissected gel with embedded MPO (MPO; mice, 6 h post injection): greater than 4 fold
uptake on the side containing MPO (MPO; mouse, SPECT/CT 3 hours after the injection): significant increased uptake

Compound: NCCc1c[nH]c2ccc(O)cc12 [serotonin, 3-(2-aminoethyl)-5-hydroxyindole]
MPO-mediated oxidation in excess chloride (MPO-I; about 5,000 times higher excess of chloride): could not be completely stopped
kinetic constant of the MPO-I reaction relative to the reaction with chloride (MPO-I; neutral pH): about 10 times

reaction with MPO (human neutrophil MPO): does not react with MPO
Compound: CC(C(=O)NCC(=O)NCCc1ccc(O)c(O)c1)N1CCN(CC(=O)[O-])CCN(CC(=O)[O-])CCN(CC(=O)[O-])CC1.[Gd+3] (stereo not shown) [hydroxytyramide-DOTA(Gd), Glycylmethyl DOTA(Gd) Hydroxytyramide]
relaxivity increase from reaction with MPO (human neutrophil MPO): did not result in a substantially significant relaxivity increase

— patent US8153784B2, “Imaging of enzyme activity” (The General Hospital Corporation, priority 2004, dated 2012)
